Measurements as given in patent US10765114B2, “4-amino-6-(pyridyl and 2-substitutedphenyl)-picolinates and 6-amino-2-(pyridyl and 2-substitutedphenyl)-pyrimidine-4-carboxylates and their use as herbicides” (Dow AgroSciences LLC, priority 2013, dated 2020).
Where two headings read alike, the source gives them in different places.

How the values were obtained:
[1] = tested on: Key Broadleaf Weed and Crop Species; test: Post-Emergent Test II (Table 5); assay type: in vivo; conditions: post-emergence, 336 h, given as numbers; for pest or weed control at 70 g/ha: application rate 70 (kg ai/ha; footnote: g ai/ha); for pest or weed control at 140 g/ha: application rate 140 (kg ai/ha; footnote: g ai/ha)
Method: (§1) Seeds or nutlets of the desired test plant species were planted in Sun Gro Metro-Mix® 360 planting mixture, which typically has a pH of 6.0 to 6.8 and an organic matter content of about 30 percent, in plastic pots with a surface area of 64 square centimeters. When required to ensure good germination and healthy plants, a fungicide treatment and/or other chemical or physical treatment was applied. The plants were grown for 7-21 days in a greenhouse with an approximate 15 h photoperiod which was maintained at about 23-29° C. during the day and 22-28° C. during the night. Nutrients and water were added on a regular basis and supplemental lighting was provided with overhead metal halide 1000-Watt lamps as necessary. The plants were employed for testing when they reached the first or second true leaf stage.
(§2) A weighed amount, determined by the highest rate to be tested, of each test compound was placed in a 25 mL glass vial and was dissolved in 4 mL of a 97:3 v/v mixture of acetone and DMSO to obtain concentrated stock solutions. […] The concentrated stock solutions obtained were diluted with 20 mL of an aqueous mixture containing acetone, water, isopropyl alcohol, DMSO, Atplus 411F crop oil concentrate, and Triton® X-155 surfactant in a 48.5:39:10:1.5:1.0:0.02 v/v ratio to obtain spray solutions containing the highest application rates. Additional application rates were obtained by serial dilution of 12 mL of the high rate solution into a solution containing 2 mL of 97:3 v/v mixture of acetone and DMSO and 10 mL of an aqueous mixture containing acetone, water, isopropyl alcohol, DMSO, Atplus 411F crop oil concentrate, and Triton X-155 surfactant in a 48.5:39:10:1.5:1.0:0.02 v/v ratio to obtain ½×, ¼×, ⅛× and 1/16× rates of the high rate. Compound requirements are based upon a 12 mL application volume at a rate of 187 liters per hectare (L/ha). Formulated compounds were applied to the plant material with an overhead Mandel track sprayer equipped with 8002E nozzles calibrated to deliver 187 L/ha over an application area of 0.503 square meters at a spray height of 18 inches (43 cm) above the average plant canopy height. Control plants were sprayed in the same manner with the solvent blank.
(§3) The treated plants and control plants were placed in a greenhouse as described above and watered by subirrigation to prevent wash-off of the test compounds. After 14 days, the condition of the test plants as compared with that of the untreated plants was determined visually and scored on a scale of 0 to 100 percent where 0 corresponds to no injury and 100 corresponds to complete kill and presented as indicated in Table A. Some of the compounds tested, application rates employed, plant species tested, and results are given in Table 5.

[2] = tested on: Key Grass and Sedge Weeds as well as Grass Crops; test: Post-Emergent Test II (Table 6); assay type: in vivo; conditions: given as numbers; for Visual Growth Reduction (%) 14 Days After Application, CYPSS: CYPSS (CYPES: yellow nutsedge, Cyperus esculentus); for Visual Growth Reduction (%) 14 Days After Application, DIGSA: DIGSA: crabgrass (Digitaria sanguinalis); for Visual Growth Reduction (%) 14 Days After Application, ECHSS: ECHSS (ECHCG: barnyardgrass, Echinochloa crus-galli); for Visual Growth Reduction (%) 14 Days After Application, ORYSS: ORYSS (ORYSA: rice, Oryza sativa); for Visual Growth Reduction (%) 14 Days After Application, ORYSS / Visual Growth Reduction (%) 14 Days After Application, TRZSS / Visual Growth Reduction (%) 14 Days After Application, ZEAMX: crop; for Visual Growth Reduction (%) 14 Days After Application, SETFA: SETFA: giant foxtail (Setaria faberi); for Visual Growth Reduction (%) 14 Days After Application, SORVU: SORVU: johnsongrass (Sorghum vulgare); for Visual Growth Reduction (%) 14 Days After Application, TRZSS: TRZSS (TRZAS: wheat, spring, Triticum aestivum); for Visual Growth Reduction (%) 14 Days After Application, ZEAMX: ZEAMX: maize, corn (Zea mays)
Method: as §1, §2, §3

[3] = Abutilon theophrasti, ABUTH: velvetleaf (Abutilon theophrasti), read-out: Visual Growth Reduction (%) 14 Days After Application ABUTH
[4] = Amaranthus retroflexus, AMARE: redroot pigweed (Amaranthus retroflexus), read-out: Visual Growth Reduction (%) 14 Days After Application AMARE
[5] = Brassica napus, BRSSS: oilseed rape, canola (Brassica napus), read-out: Visual Growth Reduction (%) 14 Days After Application BRSSS
[6] = Chenopodium album, CHEAL: lambsquarters (Chenopodium album), read-out: Visual Growth Reduction (%) 14 Days After Application CHEAL
[7] = Euphorbia heterophylla, EPHHL: wild poinsettia (Euphorbia heterophylla), read-out: Visual Growth Reduction (%) 14 Days After Application EPHHL
[8] = Helianthus annuus, HELAN: sunflower (Helianthus annuus), read-out: Visual Growth Reduction (%) 14 Days After Application HELAN
[9] = Viola tricolor, VIOTR: wild pansy (Viola tricolor), read-out: Visual Growth Reduction (%) 14 Days After Application VIOTR

Row | SMILES | pest or weed control at 70 g/ha [1, 3] [%] | pest or weed control at 140 g/ha [1, 3] [%] | pest or weed control at 70 g/ha [1, 4] [%] | pest or weed control at 140 g/ha [1, 4] [%] | pest or weed control at 70 g/ha [1, 5] [%] | pest or weed control at 140 g/ha [1, 5] [%] | pest or weed control at 70 g/ha [1, 6] [%] | pest or weed control at 140 g/ha [1, 6] [%] | pest or weed control at 70 g/ha [1, 7] [%] | pest or weed control at 140 g/ha [1, 7] [%] | pest or weed control at 70 g/ha [1, 8] [%] | pest or weed control at 140 g/ha [1, 8] [%] | pest or weed control at 70 g/ha [1, 9] [%] | pest or weed control at 140 g/ha [1, 9] [%] | Visual Growth Reduction (%) 14 Days After Application, CYPSS ([2]; 70 g ai/ha) [%] | Visual Growth Reduction (%) 14 Days After Application, CYPSS ([2]; 140 g ai/ha) [%] | Visual Growth Reduction (%) 14 Days After Application, DIGSA ([2]; 70 g ai/ha) [%] | Visual Growth Reduction (%) 14 Days After Application, DIGSA ([2]; 140 g ai/ha) [%] | Visual Growth Reduction (%) 14 Days After Application, ECHSS ([2]; 70 g ai/ha) [%] | Visual Growth Reduction (%) 14 Days After Application, ECHSS ([2]; 140 g ai/ha) [%] | other results
1 | C=Cc1c(N)nc(-c2ccc(C(F)(F)F)nc2)nc1C(=O)O [Compound 102] | 15 | 15 | 85 | 100 | 20 | 35 | 80 | 75 | 85 | 100 | 65 | 75 | 35 | 80 | 10 | 35 | 0 | 0 | 30 | 70 | Visual Growth Reduction (%) 14 Days After Application, ORYSS ([2]; 70 g ai/ha): 0%; Visual Growth Reduction (%) 14 Days After Application, ORYSS ([2]; 140 g ai/ha): 0%; Visual Growth Reduction (%) 14 Days After Application, SETFA ([2]; 70 g ai/ha): 0%; Visual Growth Reduction (%) 14 Days After Application, SETFA ([2]; 140 g ai/ha): 0%; Visual Growth Reduction (%) 14 Days After Application, SORVU ([2]; 70 g ai/ha): 0%; Visual Growth Reduction (%) 14 Days After Application, SORVU ([2]; 140 g ai/ha): 0%; Visual Growth Reduction (%) 14 Days After Application, TRZSS ([2]; 70 g ai/ha): 0%; Visual Growth Reduction (%) 14 Days After Application, TRZSS ([2]; 140 g ai/ha): 10%; Visual Growth Reduction (%) 14 Days After Application, ZEAMX ([2]; 70 g ai/ha): 0%; Visual Growth Reduction (%) 14 Days After Application, ZEAMX ([2]; 140 g ai/ha): 0%
2 | C=Cc1c(C(=O)O)nc(-c2ccc(C(F)(F)F)nc2)c(F)c1N [Compound 101] | 85 | 85 | 100 | 100 | 70 | 80 | 100 | 98 | 98 | 100 | 80 | 85 | 75 | 80 | 80 | 80 | 0 | 10 | 80 | 60 | Visual Growth Reduction (%) 14 Days After Application, ORYSS ([2]; 70 g ai/ha): 40%; Visual Growth Reduction (%) 14 Days After Application, ORYSS ([2]; 140 g ai/ha): 95%; Visual Growth Reduction (%) 14 Days After Application, SETFA ([2]; 70 g ai/ha): 20%; Visual Growth Reduction (%) 14 Days After Application, SETFA ([2]; 140 g ai/ha): 40%; Visual Growth Reduction (%) 14 Days After Application, SORVU ([2]; 70 g ai/ha): 45%; Visual Growth Reduction (%) 14 Days After Application, SORVU ([2]; 140 g ai/ha): 75%; Visual Growth Reduction (%) 14 Days After Application, TRZSS ([2]; 70 g ai/ha): 10%; Visual Growth Reduction (%) 14 Days After Application, TRZSS ([2]; 140 g ai/ha): 40%; Visual Growth Reduction (%) 14 Days After Application, ZEAMX ([2]; 70 g ai/ha): 0%; Visual Growth Reduction (%) 14 Days After Application, ZEAMX ([2]; 140 g ai/ha): 25%
